Read-outs that look alike come from different tables or passages of the source.
Key:
[1] = system: Epiderm™ Human Tissue Model (EPI-200); assay: MTT tissue viability assay (MTT ET-50 protocol) on EpiDerm skin cultures; settings: for Viability (%): relative to H2O negative control
Procedure: Mitigation of skin irritancy induced by sodium dodecyl sulfate (SDS) surfactant dosed with the polymer of Example 11 is assessed in the Epiderm™ Human Tissue Model (EPI-200) bioassay conducted by MatTek Corporation, Ashland, Mass. The MatTek bioassay utilizes human derived epidermal keratinocytes (NHEK) which have been cultured to form a multilayered, highly differentiated model of the human epidermis.
The MTT tissue viability assay measures the NAD(P)H dependent microsomal enzyme reduction of MTT (and to a lesser extent, the succinate dehydrogenase reduction of MTT) after exposure to a treated skin culture test sample for various exposure times. The duration of exposure resulting in a 50% decrease in MTT conversion in test formulation treated EpiDerm™ cultures, relative to control cultures, is determined (ET-50).
Skin tissue culture inserts (Cat. No. EPI-200) are pre-incubated in the wells of 6-well plates containing 0.9 ml of MatTek assay medium (Cat. No. EPI-100-ASY) for 1 hr. at 37° C. in a humidified atmosphere of 5% CO2 in air. The 6-well plates containing the tissue culture inserts are removed from the incubator and the assay media is aspirated from the wells and replaced by an additional aliquot of 0.9 ml of pre-warmed (37° C.) assay media. For each exposure time wells are then dosed (2 repetitions) with 100 μl of the test formulations set forth in Table 10 (3 tissue culture wells are dosed with 100 μl ultra-pure water as a negative control for each of the test candidates). In addition, 100 μl of a positive control formulation (1% Triton X-100 in ultrapure water) is dosed into tissue culture wells (3 repetitions for each exposure time), as well as 3 repetitions of ultrapure water as a negative control. The exposure times of the test formulations, negative control and positive control are set forth below.
MTT assay plates are prepped by preparing a 24-well plate by adding 300 μl of MTT reagent solution to an appropriate number of wells to accommodate the test. The MTT reagent is utilized at a concentration of 1 mg/ml of MTT diluted in Dulbecco's Modified Eagle Medium (DMEM). The MTT/DMEM solution is centrifuged and decanted to remove any precipitate before use.
After exposure times of 60 (1 hr.), 120 (2 hrs.) and 210 (3.5 hrs.) minutes to the test solutions, the tissue cultures are removed from the incubator and thoroughly rinsed (2 times) with Dulbecco's phosphate buffered saline (DPBS) to remove the test material. The negative control is exposed for 4 hours and the positive control is exposed for time periods of 4, 6, 8, and 10 hours. Any remaining rinse media is decanted from the top of the tissue cultures. Each tissue culture insert is transferred to an appropriately labeled well of the 24-well plate containing the MTT reagent solution and placed back in the incubator. After 30 minutes reaction with the MTT reagent, the tissue cultures are removed from the incubator. Each tissue culture insert is removed from its well and the bottom is gently blotted with a lab tissue. The inserts are immersed into a labeled 24-well extraction plate containing 2 ml of isopropanol extractant solution. The 24-well extraction plate is covered with aluminum foil (to protect the samples from light) and placed into a sealable plastic bag to minimize evaporation of the extractant solution. The sealed 24-well extraction plate is set on an orbital shaker and gently shaken for 2 hours at ambient room temperature (approximately 20° C.). […]

eye = settings: cited from earlier work

Compound: CCCCCCCCCCCCOS(=O)(=O)[O-].[Na+] [Neat Surfactant, sodium dodecyl sulfate]
- Viability (%) ([1]; exposure time 1 hr): 92.3%
- Viability (%) ([1]; exposure time 2 hr): 32.3%
- Viability (%) ([1]; exposure time 3.5 hr): 16.6%
- ET-50 (exposure time which reduces tissue viability to 50%) ([1]; interpolated between exposure times that bracket 50% viability, 100 μl formulation per tissue): 1.63 h

Compound: CCCCCCCCCCCCOS(=O)(=O)[O-].[Na+] [sodium lauryl sulfate]
- eye irritation (eye; literature statement (Schoenberg, 1979)): significant eye irritation

Compound: Triton X-100
- ET-50 (exposure time which reduces tissue viability to 50%) [1]: 5.93 h

Compound: sodium laureth-12 sulfate
- eye irritation (eye): almost completely non-irritating

Reference: patent US9433571B2, “Irritation mitigating polymers and uses therefor” (Lubrizol Advanced Materials, Inc., priority 2012, dated 2016)
